According to patent US20150086618A1, “PHOSPHOLIPID MICELLAR AND LIPOSOMAL COMPOSITIONS AND USES THEREOF” (THE BOARD OF TRUSTEES OF THE UNIVERSITY OF ILLINOIS, priority 2008, published 2015):
Where no end group is shown, it is not given here.

Experiments:
[1] = tested on: TREM-1 promoter-driven luciferase gene; test: TREM1-luciferase reporter assay in RAW 264.7 macrophages stimulated with P. aeruginosa PA103; assay type: cell-based, mouse; conditions: RAW 264.7 cells pre-treated 18 hr, then PA103 24 hr; compared to saline-treated PA103-stimulated cells
Description: Murine macrophages (RAW 264.7 cells) were transfected with a pro-inflammatory mediator ‘triggering receptor expressed on myeloid cells’ (TREM-1) promoter-driven luciferase gene. TREM-1 is an immunoglobulin superfamily (IgSF) molecule that amplifies inflammation and is a crucial mediator of septic shock (Bouchon et al., Nature 410: 1103-1107, 2001). The macrophages were pre-treated for 18 hr with the following treatments: (i) saline, (ii) SSM, (iii) sub-micellar concentration of lipid (lipid), (iv) GLP-SSM (GM), or (v) VIP-SSM (VM), in the presence or absence of Exendin(9-39) or (VIP(6-28). To allow for the presence of excess antagonist to compete with its respective peptide agonist for receptor binding, the concentration of each receptor antagonist used (10 μM) was 10 times greater than its peptide agonist (1 μM). Inflammation of cells was induced by the addition of the Gram-negative bacteria Pseudomonas aeruginosa (P. aeruginosa strain PA103) for an additional 24 hr, and luciferase activities were measured (see FIG. 1).
The preparation of samples was carried out as follows: The SSM stock solution (1.59 mM) was prepared by weighing approximately 2.23 mg of DSPE-PEG2000 into a round bottom flask (RBF). Saline (˜0.5 ml) was added to achieve a concentration of 1.59 mM. […]
TREM1 expression levels were determined as set out below. […]

NF-κB = test: NF-κB-driven luciferase reporter assay in bone marrow-derived macrophages (BMDM) with LPS; assay type: cell-based, mice; conditions: 24 h
Description: Bone marrow-derived macrophages (BMDM) from a primary macrophage cell line, extracted from mice transfected with a nuclear factor-kappa B (NF-κB)-driven luciferase reporter plasmid, were used in these experiments. In this cell line, the expression of NF-κB (a proinflammatory mediator) induces the expression of a luciferase gene in a concentration-dependent manner. Therefore, the expression level of NF-κB in BMDM can be quantified indirectly by the magnitude of luminescence produced [relative luminescence units (RLU)] via a luciferase assay. BMDM were subjected to treatment with either saline, saline+LPS, SSM, SSM+LPS, GLP, GLP+LPS, GLP-SSM (GM), GM+LPS, VIP, VIP+LPS, VIP-SSM (VM), and VM+LPS. The resulting inflammatory responses induced by the different agents was then quantified via a luciferase assay to determine the expression level of NF-κB.
Test reagents for use in the experiments were prepared using the following protocols as set out in detail below. SSM stock solution (1.56 mM): Weigh approximately 2.2 mg of DSPE-PEG2000 into a round bottom flask (RBF). Add the required volume of saline (˜0.5 ml) to achieve a concentration of 1.56 mM. Vortex the mixture for 2 minutes at maximum speed. Flush the solution with argon and equilibrate in the dark at 25° C. for at least 1 hour. […] Dissolve in the required volume of saline (˜30 μl) to form stock solution (173.3 μM). Test samples and controls were prepared as set out in Table 2, and samples and control were incubated at 25° C. for 2 h in the dark. VIP stock solution (176.67 μM≡587.57 μg/ml): Weigh approximately 12 μg of VIP peptide. Saline (˜20 μl) was added to form the stock solution (176.67 μM). LPS stock solution (LPS is weighed from lyophilized powder and dissolved in PBS; each well contains 1 μg/ml).
Preparation of cells for test: Extracted bone marrow cells were grown for 7 days in liquid culture medium (LCM) containing full medium. Old medium was removed and fresh medium (10-20 ml) was added. Cells were dislodged by scraping using a cell scraper, and the cells were counted. The concentration of cells was adjusted with medium to the test concentration of 10^5 cells/ml. Cells (10^5) (˜1 ml) were plated into each well of a 12-well plate. This procedure was repeated until 16 wells were plated with cells. Cells were incubated for 24 h at 37° C., 5% CO2. This allowed cells to adhere to the culture plate. After 24 h, medium was removed and replaced with serum-starved medium (with 2% FBS, phenol red containing DMEM and Pen/Strep (P/S)). Cells were incubated at 37° C., 5% CO2.
Determination of NF-κB expression level: Before addition of sample/control, the media was removed from each well; washed with PBS and 0.5 ml of serum free media (DMEM with no phenol red, FCS or antibiotics) was added into each well. Cells were treated as set out in Table 3 below. Cells were then incubated for 24 h at 37° C. The culture media was collected from each well. Remaining cells were washed twice with PBS; 100 μl of cell lysis buffer (luciferase kit) was added; cells were dislodged with a cell scraper and collected in centrifuge tubes. All samples were stored at −80° C. if not used immediately. The expression level of NF-kappa B (relative luminescence units (RLU)) in the cell lysate from each well was measured using a luciferase assay (Cat#1500, Promega). The protein content of each sample was measured using a Bradford protein assay to normalize results from the luciferase assay. The results are set out in Table 3 below and in FIG. 2.

[2] = α-helicity of LP17 and control peptide in saline and SSM; assay type: physicochemical; conditions: peptide 20 μM, SSM 5 mM
Experimental: The α-helicity of LP17 (20 μM) in saline and in SSM (5 mM) was tested. A control peptide ([…] (SEQ ID NO:2)) was also tested in saline and in SSM at the same concentrations.

Substance: Exendin (9-39)
- luciferase activity (expression level of TREM 1) [1]: absence of anti-inflammatory effect

Substance: vasoactive intestinal peptide (HSDAVFTDNYTRLRKQMAVKKYLNSILN; ends and bridges not checked; UniProt P01282 125-152, looked up) [VIP, peptide hormone containing 28 amino acid residues, free peptide in saline]
- Relative Luminescence Units (RLU) Normalized to Protein Concentration, Ave. (NF-κB; + LPS (1 μg/ml)): 311.39 RLU
- Relative Luminescence Units (RLU) Normalized to Protein Concentration, Trial 1 (NF-κB; + LPS (1 μg/ml)): 329.26 RLU
- Relative Luminescence Units (RLU) Normalized to Protein Concentration, Trial 2 (NF-κB; + LPS (1 μg/ml)): 342.42 RLU
- Relative Luminescence Units (RLU) Normalized to Protein Concentration, Trial 3 (NF-κB; + LPS (1 μg/ml)): 306.81 RLU
- Relative Luminescence Units (RLU) Normalized to Protein Concentration, Trial 4 (NF-κB; + LPS (1 μg/ml)): 267.10 RLU
- Relative Luminescence Units (RLU) Normalized to Protein Concentration, Ave. (NF-κB; control without LPS): 73.70 RLU
- Relative Luminescence Units (RLU) Normalized to Protein Concentration, Trial 1 (NF-κB; control without LPS): 57.78 RLU
- Relative Luminescence Units (RLU) Normalized to Protein Concentration, Trial 2 (NF-κB; control without LPS): 90.09 RLU
- Relative Luminescence Units (RLU) Normalized to Protein Concentration, Trial 3 (NF-κB; control without LPS): 60.50 RLU
- Relative Luminescence Units (RLU) Normalized to Protein Concentration, Trial 4 (NF-κB; control without LPS): 86.45 RLU

Substance: TDSRCVIGLYHPPLQVY (SEQ ID NO:2) (listed as Mus musculus) [control peptide, control peptide for LP17]
- percent α-helicity in SSM compared to saline [2]: No significant difference

Substance: VIP(6-28): VIP receptor antagonist (FTDNYTRLRKQMAVKKYLNSILN; ends and bridges not checked; UniProt P01282 130-152, looked up, fragment)
- luciferase activity (expression level of TREM 1) [1]: absence of anti-inflammatory effect
